Measurements reported in patent US12416034B2, “Recombinant production of steviol glycosides” (EVOLVA SA, priority 2011, dated 2025).

Experiments:
[1] = In vitro assay of lysates of EUGT11-expressing cells after permeabilization treatment; format: biochemical, S. cerevisiae; details: lysates of EUGT11 transformants, untreated or after LiAC/PEG, Triton X100 or LS treatment
Experimental: Experiments were done to establish conditions for permeabilization in E. coli and in yeast. Growing cells (S. cerevisiae or E. coli) were treated with different concentrations/combinations of permeabilization agents: toluene, chloroform and ethanol for permeabilization of S. cerevisiae, and guanidine, lactic acid, DMSO and/or Triton X-100 for permeabilization of E. coli. Tolerance of both model organisms to high concentrations of RebA and other potential substrates also was evaluated. The permeabilization was measured by the amount of RebD produced from a EUGT11-expressing organism after incubation in a RebA containing medium (feeding experiment). Enzyme activity was monitored before and after exposure to the permeabilizing agents by lysing the cells and analyzing the activity of the released UGTs in an in vitro assay.
Treatment with Triton X-100 0.3% or 0.5%, however, increased the amount of RebD above background levels (see FIG. 18) while sustaining the activity of EUGT11. For Triton X-100 assays, overnight cultures were washed three times in PBS buffer. Cells corresponding to 6 OD600 units were resuspended in PBS containing 0.3% or 0.5% Triton X-100 respectively. […]
Lysates from transformants expressing EUGT11 were able to convert some RebA into RebD (8 to 50 μM were measured in the reactions) when cells were untreated or after treatment with LiAC/PEG or Triton X100.

[2] = UDP-glucose regenerating activity of sucrose synthase; format: biochemical; details: 1 mM UDP, ~200 mM sucrose, 37° C., 24 h
Experimental: Experiments were performed to evaluate the UDP-glucose regenerating activity of the purified GST-AtSUS1 and GST-SrSUS1. In vitro assays were conducted in 100 mM Tris-HCl pH=7.5 and 1 mM UDP (final concentration). Either ˜2.4 μg of purified GST-AtSUS1, ˜0.15 μg of GST-SrSUS1, or ˜1.5 μg commercial BSA (New England Biolabs, Ipswich, MA) were also added. Reactions were done in presence or absence of ˜200 mM sucrose and incubated at 37° C. for 24 h. Product UDP-glucose was measured by HPLC as described in the analytical section. AtSUS1 produced ˜0.8 mM UDP-glucose when sucrose was present. […] The lack of activity observed for SrSUS1 could be explained by the poor quality and concentration of the purified enzyme. UDP-glucose production by AtSUS1 was sucrose dependent and, therefore, it was concluded that AtSUS1 can be used in a coupled reaction to regenerate the UDP-glucose used by EUGT1 or other UGTs for small molecule glycosylation (FIG. 11, above).

[3] = Coupled AtSUS/EUGT11 reaction, RebD formation; format: biochemical; details: ~200 mM sucrose, 1 mM UDP, 100 μM RebA, GST-AtSUS1 and GST-EUGT11
Experimental: SUS catalyzes the formation of UDP-glucose and fructose from sucrose and from UDP as depicted in FIG. 11. This UDP-glucose then can be used by EUGT11 for glycosylation of RebA to produce RebD. In vitro assays as described above were performed, adding ˜200 mM sucrose, 1 mM UDP, 100 μM RebA, ˜1.6 μg purified GST-AtSUS1 and ˜0.8 μg GST-EUGT11. Formation of product, RebD, was evaluated by LC-MS. When AtSUS, EUGT11, sucrose and UDP were mixed with RebA, 81±5 μM of RebD was formed. The reaction was dependent on the presence of AtSUS, EUGT11 and sucrose. The conversion rate was similar to what has been observed previously using UDP-glucose provided extraneously.

ERG9 = test: Amorphadiene production (indirect FPP accumulation), GC-MS; format: cell-based, S. cerevisiae; details: 72 h, construct in front of ERG9
Description: DNA fragments encompassing an ERG9 promoter upstream sequence (for homologous recombination), an expression cassette for the gene (NatR) that confers resistance to Nourseothricin, a CYC1 promoter (SEQ ID NO: 185, FIG. 21), a 5′ UTR sequence with a stemloop structure, and an ERG9 ORF sequence (for homologous recombination) were generated by PCR. DNA fragments that contained either the CYC1 promoter or the KEX2 promoter (SEQ ID NO: 186) but no stemloops were also generated as controls. The flanking ERG9 sequences for recombination as well as the stemloop structure were introduced via the PCR oligos. The DNA fragments were transformed into an S. cerevisiae host strain that subsequently was selected on nourseothricin containing growth plates. […]
The Amorpha-4,11-diene Synthase (ADS) gene catalyzes the chemical reaction that turns one FPP molecule into Amorpha-4,11-diene in the plant Artemisia annua. […] Amorpha-4,11-diene production was measured and compared to the standard compound caryophyllene, as described by (Ro et al. 2006. Nature 440(7086):940-943; Paradise et al. Biotechnol Bioeng. 2008 Jun. 1; 100(2):371-8; Newman et al. Biotechnol Bioeng 95(4):684-691).
Engineered yeast strains were grown in SC 2% glucose with uracil dropped out. […] 10 μl of the dodecane layer was sampled and diluted 100 fold in ethyl acetate for quantification by GC-MS […]

[4] = system: Saccharomyces cerevisiae EFSC1923; test: Steviol 19-O-monoside production in EFSC1923 with plasmid-expressed enzymes; format: cell-based; details: shake flask, co-expressed with KAH-3
Experimental: The 150 nucleotides at the 5′ end of the Zea mays CDP synthase coding sequence in Table 15 (SEQ ID NO:157, see FIG. 14) was deleted, the remainder of the coding sequence was provided with a new translation start ATG, and the truncated sequence was operably linked to the GPD1 promoter in the multicopy plasmid p423GPD in Saccharomyces cerevisiae EFSC1923. Plasmid p423GPD is described in Mumberg, D et al, Gene, 156: 119-122(1995). EFSC1923 and EFSC1923 plus p423GPD-Z.m.tCDPS were grown in for 96 hours in selective yeast medium containing 4% glucose. The amount of steviol 19-O-monoside produced by EFSC1923+p423GPD-Z.m.tCDPS (the truncated Zea mays CDPS) under these conditions was approximately 2.5 fold more than that produced by EFSC1923 without the plasmid.
The Arabidopsis thaliana KAH coding sequence from Table 15 was inserted in a multicopy plasmid designated p426GPD, under the control of the GPD1 promoter. Plasmid p426GPD is described in Mumberg, D et al, Gene. 156: 119-122(1995).
EFSC1923 was transformed with both p423GPD-Z.m.tCDPS and p426 p426GPD-A.t.KAH.
A bifunctional CDPS-KS from Gibberella fujikuroi (NCBI Accession no: Q9UVY5.1, FIG. 15) was cloned and compared to the truncated CDPS-5. […]

CCCCCCCCCCCCN(C)CC(=O)O [LS, N-lauryl sarcosine]
RebD measured in reactions of lysates [1]: no RebD was measured

AtSUS1: A. thaliana SUS1 sucrose synthase
UDP-glucose produced [2]: ~0.8 mM
RebD formed [3]: 81 ± 5 µM

SEQ ID NO: 181: heterologous insert TGAATTCGTTAACGAATTC behind the CYC1 promoter in front of ERG9 (expressed or natural sequence)
increased production of amorphadiene (ERG9): 2.5 ×

B1: bifunctional CDPS-KS: bifunctional CDPS-KS from Gibberella fujikuroi, NCBI Accession no Q9UVY5.1 (protein, listed as Gibberella fujikuroi)
chain: MPGKIENGTPKDLKTGNDFVSAAKSLLDRAFKSHHSYYGLCSTSCQVYDTAWVAMIPKTRDNVKQWLFPECFHYLLKTQAADGSWGSLPTTQTAGILDTASAVLALLCHAQEPLQILDVSPDEMGLRIEHGVTSLKRQLAVWNDVEDTNHIGVEFIIPALLSMLEKELDVPSFEFPCRSILERMHGEKLGHFDLEQVYGKPSSLLHSLEAFLGKLDFDRLSHHLYHGSMMASPSSTAAYLIGATKWDDEAEDYLRHVMRNGAGHGNGGISGTFPTTHFECSWIIATLLKVGFTLKQIDGDGLRGLSTILLEALRDENGVIGFAPRTADVDDTAKALLALSLVNQPVSPDIMIKVFEGKDHFTTFGSERDPSLTSNLHVLLSLLKQSNLSQYHPQILKTTLFTCRWWWGSDHCVKDKWNLSHLYPTMLLVEAFTEVLHLIDGGELSSLFDESFKCKIGLSIFQAVLRIILTQDNDGSWRGYREQTCYAILALVQARHVCFFTHMVDRLQSCVDRGFSWLKSCSFHSQDLTWTSKTAYEVGFVAEAYKLAALQSASLEVPAATIGHSVTSAVPSSDLEKYMRLVRKTALFSPLDEWGLMASIIESSFFVPLLQAQRVEIYPRDNIKVDEDKYLSIIPFTWVGCNNRSRTFASNRWLYDMMYLSLLGYQTDEYMEAVAGPVFGDVSLLHQTIDKVIDNTMGNLARANGTVHSGNGHQHESPNIGQVEDTLTRFTNSVLNHKDVLNSSSSDQDTLRREFRTFMHAHITQIEDNSRFSKQASSDAFSSPEQSYFQWVNSTGGSHVACAYSFAFSNCLMSANLLQGKDAFPSGTQKYLISSVMRHATNMCRMYNDFGSIARDNAERNVNSIHFPEFTLCNGTSQNLDERKERLLKIATYEQGYLDRALEALERQSRDDAGDRAGSKDMRKLKIVKLFCDVTDLYDQLYVIKDLSSSMK
activity in producing steviol 19-O-monoside relative to EFSC1923 with the KAH-3 alone [4]: about 5.8 times
